# Laboratory results taken from US12336986B2, “Treatment and prevention of ocular neurodegenerative disorder” (The Jackson Laboratory, priority 2015, dated 2025).
# Entries after “also recorded” stand apart in the source; their conditions may differ.
# Assays:
# [1] = system: RGCs; settings: U.S. Pat. No. 7,776,326; injected intravitreally; cited from earlier work
# [2] = system: SNAP-25; test: Synapse loss (SNAP-25 staining) in D2 retinas; assay type: in vivo, mouse; settings: D2 mice, NAM 550 mg/kg/day
# Description: For immunofluorescence staining, mice were euthanized by cervical dislocation, their eyes enucleated and placed in 4% PFA ON. Retinas were dissected and flat-mounted onto slides, permeabilized with 0.1% Triton-X for 15 mins, blocked with 2% BSA in PBS and stained ON at RT in primary antibody (see below for list of antibodies).
# After primary antibody incubation, retinas were washed 5 times in PBS, stained for 4 hrs at RT with secondary antibody. Slides were then washed a further 5 times with PBS, stained with DAPI for 15 mins, mounted with fluoromount, coverslipped and sealed with nail-polish.
# For retinal sections, eyes were cryoprotected in 30% sucrose ON, frozen in OCT and cryosectioned at 18 μm. Slides were warmed to room temperature and the procedure above was followed. Retinas were imaged on a Zeiss AxioObserver for low resolution counts. Retinal sections were imaged on a Leica SP8 far higher resolution images.
# [3] = system: dorsal root ganglion; settings: U.S. Pat. No. 7,776,326; cited from earlier work
# [4] = cited from earlier work
# [5] = system: D2 retinas; test: Metabolic phenotyping of retina: total NAD, NAD(t) (NAD+/NADH); assay type: in vivo, mouse
# Description: We performed additional metabolic profiling of neural retinas from 4-, 9-, and 12-months old D2 and D2-Gpnmb^+ eyes. Metabolic profiling was performed using targeted assays following the manufacturers recommendations. The following metabolites were profiled: NAD+/NADH (i.e. total NAD, NAD(t)), GSH/GSSG (i.e. total glutathione, glutathione(t)), and pyruvate.
# For GSH/GSSO and NAD^+/NADH quantification retinas were dissociated (as above) and compounds measured following the manufacturer's instructions (GSH/GSSG, Cayman Chemical; NAD^+/NADH, Biovision). Results were calculated according to the standard curve generated by using standards from the kits. Final metabolite concentrations for each samples were normalized to total protein concentration measured by Bradford assay.
# [6] = system: retinal ganglion cells (RGCs); test: RNA-sequencing of FAC sorted RGCs, differential gene expression; assay type: in vivo, mouse; settings: for RGC gene expression changes (RNA-seq): D2 mice, NAM 550 mg/kg/day in drinking water from 6-month, 9-month RGCs
# Description: Prior to cell collection, all surfaces and volumes were cleaned with 70% ethanol and RNaseZap (ThermoFisher Scientific) solution followed by dH2O. Mice were euthanized, eyes enucleated and placed immediately into ice-cold HBSS. Retinas were dissected from the eyes (4- or 9-month of age, no axon degeneration confirmed by PPD staining, data not shown) in HBSS on ice and placed directly into 100 μL, of a custom HBSS (Gibco), dispase (5 U/mL) (Stemcell Technologies), DNase 1 (2000 U/mL) (Worthington Biochemical) and SUPERase (1 U/μL) (ThermoFisher Scientific) solution. All retinas were from eyes that had no glaucomatous axon degeneration by PPD staining and analysis (see optic nerve assessment below). Retinas were incubated for 20 mins at 37° C. and shaken at 350 RPM in an Eppendorf Thermomixer R followed by gentle trituration using a 200 μL pipette. Samples were blocked in 2% BSA, SUPERase (1 U/μL) in HBSS, and stained with conjugated antibodies against Cd11b, Cd11c, Cd34, Cd45.2, GFAP, Thy1.2 as well as DAPI. This cocktail allowed other retina cell types to be accurately removed during FACS.
# FACS was performed on a FACSAria (BD Biosciences). Thy1.2^+ (and negative for all other markers) RGCs were sorted into 300 μL buffer RLT+1% β-ME, vortexed and frozen at −80° C. until further processing.
# […] RGC samples were defrosted on ice and homogenized by syringe in RLT Buffer (total volume 300 μL). Total RNA was isolated using RNeasy micro kits according to manufacturer's protocols (Qiagen) including the optional DNase treatment step, and quality was assessed using an Agilent 2100 Bioanalyzer. The concentration was determined using Ribogreen Assay (Invitrogen). […]
# Library size produced was analyzed using qPCR using the Library Quantitation kit/Illumina GA/ABI Prism (Kapa Biosystems). Libraries were barcoded, pooled, and sequenced 6 samples per lane on a HiSeq 2500 sequencer (illumina) giving a depth of 30-35 million reads per sample.
# Samples were subjected to quality control analysis by a custom quality control python script. Reads with 70% of their bases having a base quality score ≥30 were retained for further analysis. Read alignment was performed using TopHat v 2.0.7 (Kim et al., Genome Biol 14, R36, 2013) and expression estimation was performed using HTSeq (Anders et al., Bioinformatics 31, 166-169, 2015) with supplied annotations and default parameters against the DBA/2J mouse genome (build-mm10). […]
# Differential gene expression analysis between groups was performed using edgeR v 3.10.5 (Robinson et al., Bioinformatics 26, 139-140, 2010) following, batch correction using RUVSeq, the removal of outlier samples and lowly expressed genes by removing genes with less than five reads in more than two samples. […]
# [7] = RGCs, q<0.05, NAM 550 mg/kg/day
smiles,measurement,setting,value
"NC(=O)c1cccnc1 [NAM, nicotinamide]",axon degeneration in RGCs after intravitreal injection,[1],not protective against axon degeneration in RGCs; also recorded: did not show any difference from the control animals
same,synapse loss in early glaucoma (SNAP-25 staining),[2],protected against early synapse loss; also recorded: prevents synapse loss
same,axonal degeneration after axotomy,[3],did not work to diminish axonal degeneration
same,doses with an incidence of hepatotoxicity,"[4]; humans, attributed to impurities in older preparations",> 4 grams NAM per day
same,cases of jaundice reported,[4]; survey of 6000 patients on high doses,3
same,NAD(t) levels in retina,[5]; D2 Wld^S mice treated with NAM 550 mg/kg/day,synergistic; also recorded: additional benefit
same,NAD(t) levels in retina,"[5]; D2 mice, NAM 550 mg/kg/day in drinking water, through to 12-month",prevented the decline of NAD levels; also recorded: restored; also recorded: increased
same,RGC gene expression changes (RNA-seq),[6],prevented even the earliest molecular signs of glaucoma in the majority of treated eyes; also recorded: prevented the vast majority of age-related gene expression changes; also recorded: returned to normal; also recorded: molecularly similar to controls; also recorded: molecularly similar to both young and age-matched no glaucoma control RCGs; also recorded: prevents transcriptome imbalances and OXPHOS imbalances; also recorded: prevents age- and disease-related gene expression changes
same,RGC gene expression changes (RNA-seq),[6]; listed as nicotinamide,more closely molecularly matched to young control mice
same,"number of DE genes, 4-month D2-Gpnmb+ vs. NAM",[6]; [7],83
same,"number of DE genes, 9-month D2-Gpnmb+ vs. NAM",[6]; [7],4437
